From ChEMBL document CHEMBL5634090, “Design of phenothiazine-based cationic amphiphilic derivatives incorporating arginine residues: Potential membrane-active broad-spectrum antimicrobials combating pathogenic bacteria in vitro and in vivo” (Eur J Med Chem, 2023)
≈ marks a conversion by molar mass, not a printed value. Where “and” joins values, the source holds several entries; their conditions need not be identical. Equal entries are not always repeated. Calls of active or inactive are those of the source. The calls are words filed in the database; no cut-off is given here.

Experiments:
Pseudomonas aeruginosa [1] = experiment: Antibacterial activity against Pseudomonas aeruginosa ATCC 9027 by microbroth dilution assay; format: functional
Pseudomonas aeruginosa [2] = experiment: Antibacterial activity against Pseudomonas aeruginosa ATCC 9027 infected in cyclophosphamide immunosuppressed keratitis mouse model assessed as log reduction in number of viable bacterial colonies at 10 mg/ml administrated tropically; format: functional
Pseudomonas aeruginosa [3] = experiment: Antibacterial activity against Pseudomonas aeruginosa ATCC 9027 in presence of 20 umol/L Fe3+ by broth microdilution method; format: functional
[4] = Cytotoxicity against mouse NCTC clone 929 cells assessed as cell survival rate at 3.125 ug/ml by CCK-8 assay relative to control; format: toxicity, cell-based; conditions: NCTC clone 929 (L929) cells, at 3.125 µg/mL, read-out: Activity
Staphylococcus aureus [5] = experiment: Antibacterial activity against methicillin resistant Staphylococcus aureus NCTC 10442 in presence of 2.5 mmol/L Ca2+ by broth microdilution method; format: functional
Klebsiella pneumoniae [6] = experiment: Antibacterial activity against Klebsiella pneumoniae ATCC 10031 in presence of 2.5 mmol/L Ca2+ by broth microdilution method; format: functional
Staphylococcus aureus [7] = experiment: Antibiofilm activity against 24 hrs preformed biofilm in Staphylococcus aureus ATCC 29213 assessed as reduction in biofilm viability at 12.5 ug/ml relative to control; format: functional; conditions: dose 12.5 µg/ml
Escherichia coli [8] = experiment: Antibacterial activity against Escherichia coli ATCC 25922 in presence of 20 umol/L Fe2+ by broth microdilution method; format: functional
[9] = Cytotoxicity against mouse NCTC clone 929 cells assessed as cell survival rate at 50 ug/ml by CCK-8 assay relative to control; format: toxicity, cell-based; conditions: NCTC clone 929 (L929) cells, at 50 µg/mL, read-out: Activity
Pseudomonas aeruginosa [10] = experiment: Antibacterial activity against Pseudomonas aeruginosa ATCC 9027 in presence of 19 umol/L Zn2+ by broth microdilution method; format: functional
Klebsiella pneumoniae [11] = experiment: Inhibition of biofilm formation in Klebsiella pneumoniae ATCC 10031 at 12.5 ug/ml by crystal violet staining assay relative to control; format: functional
Staphylococcus aureus [12] = experiment: Antibacterial activity against Staphylococcus aureus ATCC 29213 assessed as cell membrane disruption by SYTOX Green assay; format: functional, organism-based
Escherichia coli [13] = experiment: Antibacterial activity against Escherichia coli ATCC 25922 in presence of 140 mmol/L Na+ by broth microdilution method; format: functional
Pseudomonas aeruginosa [14] = experiment: Antibacterial activity against Pseudomonas aeruginosa ATCC 9027 infected in cyclophosphamide immunosuppressed keratitis mouse model assessed as reduction in corneal injury at 10 mg/ml administrated tropically; format: functional, organism-based
Klebsiella pneumoniae [15] = experiment: Antibacterial activity against Klebsiella pneumoniae ATCC 10031 assessed as loss in cell viability at 8 times MIC incubated for 4 hrs by LIVE/DEAD BacLight bacterial viability assay; format: functional, organism-based; conditions: Cell membrane
Klebsiella pneumoniae [16] = experiment: Antibiofilm activity against 24 hrs preformed biofilm in Klebsiella pneumoniae ATCC 10031 assessed as reduction in biofilm viability at […] ug/ml relative to control; format: functional; conditions: dose […] microg/ml; 1.56 ug/mL
Escherichia coli [17] = experiment: Antibacterial activity against Escherichia coli ATCC 25922 in presence of 20 umol/L Fe3+ by broth microdilution method; format: functional
[18] = Cytotoxicity against HEK293 cells assessed as cell survival rate at 6.25 ug/ml by CCK-8 assay relative to control; format: toxicity, cell-based; conditions: human, at 6.25 µg/mL, read-out: Activity
[19] = Cytotoxicity against mouse NCTC clone 929 cells by CCK-8 assay; format: toxicity, cell-based; conditions: NCTC clone 929 (L929) cells
Staphylococcus aureus [20] = experiment: Antibacterial activity against methicillin resistant Staphylococcus aureus N315 in presence of 20 umol/L Fe3+ by broth microdilution method; format: functional
Klebsiella pneumoniae [21] = experiment: Antibiofilm activity against 24 hrs preformed biofilm in Klebsiella pneumoniae ATCC 10031 assessed as reduction in biofilm viability at 12.5 ug/ml relative to control; format: functional; conditions: dose 12.5 µg/ml
Staphylococcus aureus [22] = experiment: Antibacterial activity against Staphylococcus aureus ATCC 29213 in presence of 1 mmol/L Mg2+ by broth microdilution method; format: functional
[23] = Selectivity index, ratio of CC50 for cytotoxicity against mouse NCTC clone 929 cells to MIC for antibacterial activity against methicillin resistant Staphylococcus aureus NCTC 10442; format: toxicity, cell-based; conditions: read-out: Selectivity Index
Klebsiella pneumoniae [24] = experiment: Antibacterial activity against Klebsiella pneumoniae ATCC 10031 assessed as reduction in bacterial load at 4 times MIC measured after 2 hrs by time kill assay relative to control; format: functional; parameters: scale not given: the % may be the effect or the level left
Staphylococcus aureus [25] = experiment: Induction of resistance development in Staphylococcus aureus ATCC 29213 assessed as fold increase in MIC treated over 20 serial passages by microdilution assay; format: functional
Klebsiella pneumoniae [26] = experiment: Antibacterial activity against Klebsiella pneumoniae ATCC 10031 in presence of 4.5 mmol/L K+ by broth microdilution method; format: functional
[27] = Cytotoxicity against mouse NCTC clone 929 cells assessed as cell survival rate at 25 ug/ml by CCK-8 assay relative to control; format: toxicity, cell-based; conditions: NCTC clone 929 (L929) cells, at 25 µg/mL, read-out: Activity
Escherichia coli [28] = experiment: Antibacterial activity against Escherichia coli ATCC 25922 in presence of 2.5 mmol/L Ca2+ by broth microdilution method; format: functional
Klebsiella pneumoniae [29] = experiment: Antibacterial activity against Klebsiella pneumoniae ATCC 14581 in presence of 2.5 mmol/L Ca2+ by broth microdilution method; format: functional
Escherichia coli [30] = experiment: Antibacterial activity against Escherichia coli ATCC 25922 in presence of 19 umol/L Zn2+ by broth microdilution method; format: functional
Staphylococcus aureus [31] = experiment: Antibacterial activity against Staphylococcus aureus ATCC 29213 in presence of 2.5 mmol/L Ca2+ by broth microdilution method; format: functional
Pseudomonas aeruginosa [32] = experiment: Antibacterial activity against Pseudomonas aeruginosa ATCC 9027 in presence of 140 mmol/L Na+ by broth microdilution method; format: functional
Staphylococcus aureus [33] = experiment: Antibiofilm activity against 24 hrs preformed biofilm in Staphylococcus aureus ATCC 29213 assessed as reduction in biofilm viability at 0.39 ug/ml relative to control; format: functional; conditions: dose 0.39 µg/ml
Staphylococcus aureus [34] = experiment: Antibacterial activity against Staphylococcus aureus ATCC 29213 assessed as loss in cell viability at 8 times MIC incubated for 4 hrs by LIVE/DEAD BacLight bacterial viability assay; format: functional, organism-based; conditions: Cell membrane
Staphylococcus aureus [35] = experiment: Antibacterial activity against methicillin resistant Staphylococcus aureus N315 in presence of 19 umol/L Zn2+ by broth microdilution method; format: functional
Staphylococcus aureus [36] = experiment: Antibacterial activity against Staphylococcus aureus ATCC 29213 assessed as log reduction in bacterial load at 8 times MIC measured after 2 hrs by time kill assay; format: functional
Staphylococcus aureus [37] = experiment: Antibacterial activity against methicillin resistant Staphylococcus aureus NCTC 10442 in presence of 19 umol/L Zn2+ by broth microdilution method; format: functional
Staphylococcus aureus [38] = experiment: Antibacterial activity against methicillin resistant Staphylococcus aureus NCTC 10442 in presence of 1 mmol/L Mg2+ by broth microdilution method; format: functional
Klebsiella pneumoniae [39] = experiment: Antibiofilm activity against 24 hrs preformed biofilm in Klebsiella pneumoniae ATCC 10031 assessed as reduction in biofilm viability at 25 ug/ml relative to control; format: functional; conditions: dose 25 µg/ml
[40] = Cytotoxicity against HEK293 cells by CCK-8 assay; format: toxicity, cell-based; conditions: human

With `CCCCCCCN1c2ccccc2Sc2ccc(OCC(=O)N[C@@H](CCCNC(=N)N)C(=O)N[C@@H](CCCNC(=N)N)C(N)=O)cc21` the MIC (Pseudomonas aeruginosa [1]) was 6.25 µg/mL (≈ 9.15 µM), the “log(activity)” value (Pseudomonas aeruginosa [2]) was 5.93 and the MIC (Pseudomonas aeruginosa [3]) was 6.25 µg/mL. It also gave a viability at 3.125 ug/ml [4] of 97.9%, an MIC (Staphylococcus aureus [5]) of 3.12 µg/mL and an MIC (Klebsiella pneumoniae [6]) of 3.12 µg/mL. It also gave an Activity (Staphylococcus aureus [7]) of 9.12%, an MIC (Escherichia coli [8]) of 3.12 µg/mL and a viability at 50 ug/ml [9] of 68.1%. For the same compound, the MIC (Pseudomonas aeruginosa [10]) was 3.12 µg/mL, the inhibition at 12.5 µg/mL (Klebsiella pneumoniae [11]) was 93.9% and the Activity (Staphylococcus aureus [12]) was “Dose-Dependent Effect”. For the same compound, the MIC (Escherichia coli [13]) was 3.12 µg/mL, the Activity (Pseudomonas aeruginosa [14]) was “inactive” and the Activity (Klebsiella pneumoniae [15]) was “Active”. It also gave an Activity (Klebsiella pneumoniae [16]) of 73.4%, an MIC (Escherichia coli [17]) of 3.12 µg/mL and a viability at 6.25 ug/ml [18] of 87.7%. The CC50 [19] was > 50 µg/mL and 73.3 µM, the MIC (Staphylococcus aureus [20]) was 1.56 µg/mL and the Activity (Klebsiella pneumoniae [21]) was 5.88%. For the same compound, the MIC (Staphylococcus aureus [22]) was 3.12 µg/mL, the selectivity ratio [23] was 8 and the Activity (Klebsiella pneumoniae [24]) was over 99.9%. For the same compound, the fold change (FC) (Staphylococcus aureus [25]) was under 4, the MIC (Klebsiella pneumoniae [26]) was 3.12 µg/mL and the viability at 25 ug/ml [27] was 70.8%. For the same compound, the MIC (Escherichia coli [28]) was 3.12 µg/mL, the MIC (Klebsiella pneumoniae [29]) was 3.12 µg/mL and the MIC (Escherichia coli [30]) was 3.12 µg/mL. The MIC (Staphylococcus aureus [31]) was 3.12 µg/mL, the MIC (Pseudomonas aeruginosa [32]) was 6.25 µg/mL and the Activity (Staphylococcus aureus [33]) was 97.35%. For the same compound, the Activity (Staphylococcus aureus [34]) was “Active”, the MIC (Staphylococcus aureus [35]) was 1.56 µg/mL and the “log(activity)” value (Staphylococcus aureus [36]) was over 3. It also gave an MIC (Staphylococcus aureus [37]) of 1.56 µg/mL, an MIC (Staphylococcus aureus [38]) of 3.12 µg/mL and an Activity (Klebsiella pneumoniae [39]) of 4.13%. The CC50 [40] was > 50 µg/mL and 73.3 µM.
